Read-outs that look alike come from different tables or passages of the source.
Key:
[1] = target: T1, ACAT 1 (Acyl CoA-Cholesterol Acyltransferase 1) (Homo sapiens, UniProt P35610); test: In-vitro determination of inhibition of ACAT 1 (microsomal membranes of U937 cells differentiated to macrophages, [14C]-Palmitoyl CoA); format: biochemical; conditions: for inhibition at 30 µM: 3 × 10^−5 M; for inhibition at 30 µM / inhibition at 3 µM / inhibition at 100 µM / inhibition at 10 µM / inhibition at 1 µM: read-out: ACAT 1 Inhibition (%) at various concentration of example; for inhibition at 3 µM: 3 × 10^−6 M; for inhibition at 100 µM: 10^−4 M; for inhibition at 10 µM: 10^−5 M; for inhibition at 1 µM: 10^−6 M; for IC50: U937 macrophage microsomes
T1 construct: Cells were collected, homogenized and microsomal membranes prepared; endogenous in cells; host or cells: U937 human monocyte cell line differentiated to macrophages with PMA; microsomal membranes
T1 sequence (P35610 1-550): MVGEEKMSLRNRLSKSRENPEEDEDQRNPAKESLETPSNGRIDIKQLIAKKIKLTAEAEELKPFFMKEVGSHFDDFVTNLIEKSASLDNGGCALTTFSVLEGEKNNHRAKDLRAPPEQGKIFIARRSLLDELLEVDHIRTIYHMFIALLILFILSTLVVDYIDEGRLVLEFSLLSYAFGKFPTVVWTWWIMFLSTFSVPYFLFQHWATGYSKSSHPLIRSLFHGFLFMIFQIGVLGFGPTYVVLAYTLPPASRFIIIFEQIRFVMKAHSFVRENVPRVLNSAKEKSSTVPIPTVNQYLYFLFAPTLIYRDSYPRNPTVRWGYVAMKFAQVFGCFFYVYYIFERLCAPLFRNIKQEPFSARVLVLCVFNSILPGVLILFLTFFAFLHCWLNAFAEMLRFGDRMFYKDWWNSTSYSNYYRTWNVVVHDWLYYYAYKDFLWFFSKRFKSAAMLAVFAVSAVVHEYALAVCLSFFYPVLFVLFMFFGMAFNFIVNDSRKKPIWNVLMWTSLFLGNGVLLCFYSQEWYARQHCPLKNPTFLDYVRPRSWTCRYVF
Experimental: I. In-vitro Determination of Inhibition of ACAT 1 (Acyl CoA-Cholesterol Acyltransferase 1)
The in-vitro determination of the inhibition of the enzyme ACAT 1 by the compounds of the invention is carried out in principle as described:
Human histiocytic monocyte cell line, U937 was differentiated to macrophages with Phorbol 12-myristate 13-acetate at a final concentration of 30 ng/mL for 72 hr. Cells were collected, homogenized and microsomal membranes prepared. Enzyme inhibition experiments were performed in the presence of 20 μM [^14]-Palmitoyl CoA as substrate. The vehicle used was 1% DMSO. Compounds to be tested were present at various concentrations and the incubation buffer used was 0.2M KH2PO4, 1 mM EDTA, 0.15% BSA, pH 7.4. After a 15 minutes preincubation period at 37° C. an incubation period of 1 hour at 37° C. followed. Quantification of [^14C]Cholesterol ester was done by column chromatography.

[2] = target: T2, ACAT 2 (Acyl CoA-Cholesterol Acyltransferase 2) (Rattus norvegicus, UniProt Q7TQM4); test: In-vitro determination of inhibition of ACAT 2 (hepatic microsomes, [14C]-Palmitoyl CoA); format: biochemical, Wistar rats
T2 construct: Briefly hepatic microsomes were prepared from the Wistar rats; from tissue; host or cells: liver (hepatic microsomes) of Wistar rats
T2 sequence (Q7TQM4 1-524): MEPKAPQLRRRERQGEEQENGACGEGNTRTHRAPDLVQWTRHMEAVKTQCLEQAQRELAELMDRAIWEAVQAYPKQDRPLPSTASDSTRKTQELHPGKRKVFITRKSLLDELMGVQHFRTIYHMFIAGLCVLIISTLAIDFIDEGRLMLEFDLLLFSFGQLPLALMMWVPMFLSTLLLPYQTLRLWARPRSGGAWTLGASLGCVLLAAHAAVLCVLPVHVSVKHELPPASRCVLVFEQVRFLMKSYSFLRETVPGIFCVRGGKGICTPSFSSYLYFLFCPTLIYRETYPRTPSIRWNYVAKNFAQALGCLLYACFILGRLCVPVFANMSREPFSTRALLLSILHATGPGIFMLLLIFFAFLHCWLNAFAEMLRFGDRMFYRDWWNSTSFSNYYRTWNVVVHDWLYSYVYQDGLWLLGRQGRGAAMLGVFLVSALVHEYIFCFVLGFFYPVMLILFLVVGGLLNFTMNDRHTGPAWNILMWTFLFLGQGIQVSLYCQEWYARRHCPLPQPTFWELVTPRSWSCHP
Experimental: II. In-vitro Determination of Inhibition of ACAT 2 (Acyl CoA-Cholesterol Acyltransferase 2)
The in-vitro determination of the inhibition of the enzyme ACAT 2 by the compounds of the invention is carried out in principle as described in the publication of Largis EE, Wang CH, DeVries VG and Schaffer SA (1989), “A Novel inhibitor of ACAT-catalyzed cholesterol esterification and cholesterol absorption”, J. Lipid Res. 30, 681-689, (1989), whereby hepatic microsomes are used. The radio-substrate used is [^14C]-Palmitoyl CoA. The respective parts of the description are hereby incorporated by reference and forms part of the present disclosure.
Briefly hepatic microsomes were prepared from the Wistar rats. Enzyme inhibition experiments were performed in presence of 18 μM [^14C]-Palmitoyl CoA as substrate. The vehicle used was 1% DMSO. Compounds to be tested were present at various concentrations and the incubation buffer used was 0.2 M Phosphate buffer, pH 7.4 at 25° C. After a 15 minutes preincubation period at 37° C. an incubation period of 10 minutes at 37° C. followed. Quantification of [^14C]Cholesterol ester was done by column chromatography.

[3] = target: T2, ACAT 2 (Acyl CoA-Cholesterol Acyltransferase 2); conditions: reported value; read-out: ACAT 2 reported IC50 of reference compound; cited from earlier work
[4] = 3 × 10^−6 M, first ACAT 2 table, read-out: ACAT 2 Inhibition (%) at various concentration of example
[5] = 3 × 10^−6 M, second ACAT 2 table, column 4, read-out: ACAT 2 Inhibition (%) at various concentration of example
[6] = 3 × 10^−7 M, first ACAT 2 table, read-out: ACAT 2 Inhibition (%) at various concentration of example
[7] = 10^−5 M, first ACAT 2 table, read-out: ACAT 2 Inhibition (%) at various concentration of example
[8] = 10^−5 M, second ACAT 2 table, column 3, read-out: ACAT 2 Inhibition (%) at various concentration of example
[9] = 10^−6 M, first ACAT 2 table, read-out: ACAT 2 Inhibition (%) at various concentration of example
[10] = second ACAT 2 table, value marked * estimated from 2 different experiments

IC50 [1] | IC50 [2, 10] | Compound | inhibition at 30 µM [1] | inhibition at 3 µM [1] | inhibition at 100 µM [1] | inhibition at 10 µM [1] | inhibition at 1 µM [1] | inhibition at 3 µM [2, 4] | inhibition at 3 µM [2, 5] | inhibition at 0.3 µM [2, 6] | inhibition at 10 µM [2, 7] | inhibition at 10 µM [2, 8] | inhibition at 1 µM [2, 9] | IC50 ([2]; first ACAT 2 table) | also measured
– | – | C[C@@H]1[C@@H](c2ccccc2)C(C(=O)NN2CCCCC2)=NN1c1ccc(Cl)cc1Cl.Cl (racemic) [Example 2, 1-(2,4-Dichloro-phenyl)-5-methyl-4-phenyl-4,5-dihydro-1H-pyrazole-3-carboxylic acid piperidin-1-ylamide; Hydrochloride] | – | – | – | – | – | – | – | – | – | – | – | 1.42 µM | ACAT 2 Inhibition (%) at various concentration of example ([2]; 3 × 10^−5 M, second ACAT 2 table): 96%; ACAT 2 Inhibition (%) at various concentration of example ([2]; 3 × 10^−6 M, first ACAT 2 table): 70%; ACAT 2 Inhibition (%) at various concentration of example ([2]; 3 × 10^−7 M, first ACAT 2 table): 17%; ACAT 2 Inhibition (%) at various concentration of example ([2]; 10^−4 M, second ACAT 2 table): 100%; ACAT 2 Inhibition (%) at various concentration of example ([2]; 10^−5 M, first ACAT 2 table): 90%; ACAT 2 Inhibition (%) at various concentration of example ([2]; 10^−6 M, first ACAT 2 table): 39%; ACAT 2 Inhibition (%) at various concentration of example ([2]; 10^−7 M, first ACAT 2 table): 4%
4.84 µM | 2 µM | CC1C(c2ccccc2)C(C(=O)O)=NN1c1ccc(Cl)cc1Cl (stereo not shown) [Example 3, 1-(2,4-Dichloro-phenyl)-5-methyl-4-phenyl-4,5-dihydro-1H-pyrazole-3-carboxylic acid] | 74% | 50% | 86% | 64% | 17% | 75% | 71% | 29% | 88% | 86% | 56% | 0.82 µM | inhibition at 30 µM ([2]; 3 × 10^−5 M, first ACAT 2 table, read-out: ACAT 2 Inhibition (%) at various concentration of example): 92%; inhibition at 3 µM ([2]; 3 × 10^−6 M, second ACAT 2 table, repeated head, column 6, read-out: ACAT 2 Inhibition (%) at various concentration of example): 40%; inhibition at 10 µM ([2]; 10^−5 M, second ACAT 2 table, repeated head, column 5, read-out: ACAT 2 Inhibition (%) at various concentration of example): 65%
9.6 µM | 12.5 µM | CC[C@H](C)C(=O)O[C@H]1C[C@@H](C)C=C2C=C[C@H](C)[C@H](CC[C@@H]3C[C@@H](O)CC(=O)O3)[C@H]21 [Lovastatin, reference compound] | – | – | – | – | – | – | – | – | – | – | – | 22.7 µM | IC50 [3]: 29 µM

Compound | IC50 [1] | IC50 [2, 10] | inhibition at 30 µM [1] | inhibition at 3 µM [1] | inhibition at 100 µM [1] | inhibition at 10 µM [1] | inhibition at 1 µM [1] | inhibition at 3 µM [2, 4] | inhibition at 3 µM [2, 5] | inhibition at 0.3 µM [2, 6] | inhibition at 10 µM [2, 7] | inhibition at 10 µM [2, 8] | inhibition at 1 µM [2, 9] | IC50 ([2]; first ACAT 2 table) | also measured
C[C@@H]1[C@@H](c2ccccc2)C(C(=O)NN2CCCCC2)=NN1c1ccc(Cl)cc1Cl (racemic) [Example 1, 1-(2,4-Dichlorophenyl)-5-methyl-4-phenyl-4,5-dihydro-1H-pyrazole-3-carboxylic acid piperidin-1-ylamide] | 9.66 µM | < 3 µM | 72% | 38% | 55% | 65% | 14% | 70% | 74% | 19% | 94% | 93% | 44% | 1.28 µM | inhibition at 30 µM ([2]; 3 × 10^−5 M, second ACAT 2 table, read-out: ACAT 2 Inhibition (%) at various concentration of example): 97%; inhibition at 100 µM ([2]; 10^−4 M, second ACAT 2 table, read-out: ACAT 2 Inhibition (%) at various concentration of example): 101%; inhibition at 0.1 µM ([2]; 10^−7 M, first ACAT 2 table, read-out: ACAT 2 Inhibition (%) at various concentration of example): -3%

From patent publication US20100099712A1, “SUBSTITUTED PYRAZOLINE COMPOUNDS WITH ACAT INHIBITION ACTIVITY” (LABORATORIOS DEL DR. ESTEVE, S.A., priority 2007, published 2010)
